Data published in US5041441A, “Method of chemotherapy using 1-phenyl-2-decanoylamino-3-morpholino-1-propanol” (The Regents of the University of Michigan, priority 1988, dated 1991).
Marks after values point to notes of the source that are not given here.

How the values were obtained:
[1] = system: Ehrlich ascites tumor cells (EATC); test: Antitumor activity in mice inoculated i.p. with Ehrlich ascites tumor cells; assay type: in vivo; details: for 50-day cure (mice) / Solid Tumors at 50 days (mice): 8 mice; for Acute, initial toxicity observation: C18 (stearoyl) homolog, 0.15 mmol/kg on day 1; for Normal at 60 days / Solid tumors at 60 days: L-threo isomer; for Weight Change after 10 days: mouse, in vivo
Protocol: Male mice of the ICR (Swiss Hsd) strain from Harlan--Sprague Dawley (Indianapolis, Ind.) were injected intraperitoneal with saline containing 2×10^6 Ehrlich ascites tumor cells (EATC) on day 0. […] Treatment began 24 hours later with intraperitoneal injections of saline or inhibitor, either as the acetate salt or as the hydrochloride salt. The inhibitor was dissolved in 40° C. saline and injected at 10 μl/g body weight. In the case of drugs that were difficult to dissolve, e.g. the hydrochlorides, a non-ionic, low toxicity detergent was included to emulsify the drug, making it suitable for injection. Two cages of mice were assigned to each control or experimental group and fed standard lab chow. In almost all cases, the mice were injected daily for a total of 10 doses.
The 1-tailed Student t-test for unpaired samples was used for statistical analysis.
The experimental procedure set forth above was again followed with homologs of PDMP made from fatty acids of 10 to 18 carbon atom length. The compounds were not resolved into D- and L-forms but the threo stereomers were used as the hydrochlorides. All samples were emulsified in Myrj 52 (15 mg/kg).

[2] = biological target: T1, glucosyltransferase (EATC enzyme) (Mus musculus, UniProt O88693); test: Glucosyltransferase assay, microsomes from EATC; assay type: biochemical
T1 construct: Microsomes from EATC (0.50 mg protein) required 20 μM PDMP to reduce the glucosyltransferase activity in half; endogenous in cells; host or cells: Ehrlich ascites tumor cells (EATC), microsomes
T1 sequence (O88693 1-394): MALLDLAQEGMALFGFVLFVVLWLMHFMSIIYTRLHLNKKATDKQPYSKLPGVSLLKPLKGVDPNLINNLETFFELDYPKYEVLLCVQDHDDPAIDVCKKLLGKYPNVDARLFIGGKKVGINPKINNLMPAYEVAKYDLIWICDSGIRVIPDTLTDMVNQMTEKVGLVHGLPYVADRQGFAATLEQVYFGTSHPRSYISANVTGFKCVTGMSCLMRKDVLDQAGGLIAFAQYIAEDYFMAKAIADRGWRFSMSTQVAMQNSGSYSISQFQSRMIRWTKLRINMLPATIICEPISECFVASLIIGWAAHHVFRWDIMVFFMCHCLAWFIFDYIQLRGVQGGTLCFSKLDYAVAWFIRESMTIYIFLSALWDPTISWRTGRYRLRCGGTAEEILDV
Protocol: Evidence that D-threo-PDMP acts to inhibit GlcCer biosynthesis was provided as follows from assay of glucosyltransferase. Microsomes as source of enzyme were prepared by highspeed centrifugation and stored at -70° C. before use. The incubations were at 37° C. for 30 minutes with microsomes, ATP, liposomal octanoyl sphingosine, UDP-[^3 H]glu, Mg^2+, and dithioerythritol. Microsomes from EATC (0.50 mg protein) required 20 μM PDMP to reduce the glucosyltransferase activity in half. The microsomes from normal liver (72 μg protein) required 5 μM D-threo-PDMP. While the EATC enzyme seems to be less sensitive to the inhibitor, the intraperitoneal concentration of inhibitor is initially very high.

Ehrlich ascites cells [3] = test: Growth of Ehrlich ascites cells in vivo (volume of packed cells); details: for Volume of packed cells / Volume of packed cells, % of controls: treatment begun 3 days after EATC inoculation, 5 injections, killed 1 day later, 100 mg/kg
Protocol: A suspension of GlcCer was injected into one group of 10 mice inoculated 1 day earlier with EATC as before. Injectable suspensions of GlcCer and galactosylceramide (GalCer) were prepared by mechanical grinding in saline (10 mg/ml) and injected at a dosage of 100 mg/kg. In one experiment, the mice were killed 1 day after the last of eight daily injections and the ascites cells were flushed out of the abdomen with buffered saline and washed.
Treatments were begun 3 days after EATC inoculation. Only 5 injections were given and the mice were killed 1 day later.

Ehrlich ascites cells [4] = details: mice bearing Ehrlich ascites carcinoma cells, injection of glucosylceramide (background); cited from earlier work
[5] = DL-threo hydrochloride in Myrj 52 emulsion, 0.3 mmol/kg, ten daily injections
[6] = DL-threo hydrochloride in Myrj 52 emulsion, C16 0.15 mmol/kg, six injections
[7] = DL-threo hydrochloride in Myrj 52 emulsion, C18 0.15 mmol/kg on day 1 and 0.075 mmol/kg the remaining 9 days

Compound: CCCCCCCCCC(=O)N[C@H](CN1CCOCC1)[C@H](O)c1ccccc1 (relative stereo) [compound 10, 1-Phenyl-2-Decanoylamino-3-Morpholino-1-Propanol]
- 50-day cure (mice) [1, 5]: 5
- Solid Tumors at 50 days (mice) [1, 5]: 1
- Mice that developed small solid tumors that were later resorbed ([1]; decanoyl group, 0.3 mmol/kg in Myrj emulsion): two
- Long-term cure rate ([1]; dosage of 128 mg/kg, Myrj emulsion): 50%

Compound: CCCCCCCCCCCC(=O)N[C@H](CN1CCOCC1)[C@H](O)c1ccccc1 (relative stereo) [compound 12]
- Body Weight Increase at the 10-day point [1, 5]: -0.1 g
- 50-day cure (mice) [1, 5]: 2
- Solid Tumors at 50 days (mice) [1, 5]: 2

Compound: CCCCCCCCCCCCCC(=O)N[C@H](CN1CCOCC1)[C@H](O)c1ccccc1 (relative stereo) [compound 14]
- Body Weight Increase at the 10-day point [1, 5]: 0.1 g
- 50-day cure (mice) [1, 5]: 1
- Solid Tumors at 50 days (mice) [1, 5]: 4

Compound: CCCCCCCCCCCCCCCC(=O)N[C@H](CN1CCOCC1)[C@H](O)c1ccccc1 (relative stereo) [compound 16]
- Body Weight Increase at the 10-day point [1, 6]: -1.1 g
- Survival after 10 days [1, 6]: 5/8
- 50-day cure (mice) [1, 6]: 3
- Solid Tumors at 50 days (mice) [1, 6]: 1
- Toxicity observation ([1]; palmitoyl homolog, daily injections in Myrj 52): too toxic to be used more than six times

Compound: CCCCCCCCCCCCCCCCCC(=O)N[C@H](CN1CCOCC1)[C@H](O)c1ccccc1 (relative stereo) [compound 18]
- Acute, initial toxicity observation [1]: high initial weight loss
- Acute, initial toxicity observation ([1]; listed as C18 homolog): absence of an acute, initial toxicity reaction
- Body Weight Increase at the 10-day point [1, 7]: 2.5 g
- 50-day cure (mice) [1, 7]: 6
- Solid Tumors at 50 days (mice) [1, 7]: 0

Compound: CCCCCCCCCC(=O)N[C@@H](CN1CCOCC1)[C@@H](O)c1ccccc1 [L-threo-PDMP, 1-Phenyl-2-Decanoylamino-3-Morpholino-1-Propanol]
- Inhibition of ceramide glucosyltransferase ([2]; general statement): ineffective
- Inhibition of the EATC enzyme ([2]; microsomes from EATC): did not inhibit
- Effectiveness in curing the tumors compared with the D-enantiomer ([1]; 60-day observation period, 75-150 mg/kg): more effective in curing the tumors than the D-enantiomer
- Losses of animals during the initial 10 days of treatment ([1]; 75-150 mg/kg): no losses of animals
- Ascites fluid in treated mice ([1]; 75-150 mg/kg, 10 days): At no time was ascites fluid visible
- Normal at 60 days ([1]; 75 mg/kg, 10 days): 4 # of mice
- Solid tumors at 60 days ([1]; 75 mg/kg, 10 days): 2 # of mice
- Normal at 60 days ([1]; 100 mg/kg, 10 days): 4 # of mice
- Solid tumors at 60 days ([1]; 100 mg/kg, 10 days): 3 # of mice
- Normal at 60 days ([1]; 125 mg/kg, 10 days): 2 # of mice
- Solid tumors at 60 days ([1]; 125 mg/kg, 10 days): 3 # of mice
- Normal at 60 days ([1]; 150 mg/kg, 10 days): 5 # of mice
- Solid tumors at 60 days ([1]; 150 mg/kg, 10 days): 3 # of mice
- Mice in which disappearance of solid tumors was observed ([1]; at the higher dosages): two
- Acute toxicity reactions of the mice ([1]; compared with the D-isomer): distinctly smaller than with the D-isomer
- Weight Change after 10 days ([1]; 75 mg/kg): 3.2 g
- Weight Change after 10 days ([1]; 100 mg/kg): 1.9 g
- Weight Change after 10 days ([1]; 125 mg/kg): 0.8 g
- Weight Change after 10 days ([1]; 150 mg/kg): -0.2 g

Compound: galactosylceramide [GalCer]
- Stimulation of EATC growth (Ehrlich ascites cells [3]; Experiment 7, 100 mg/kg): no stimulation of EATC growth
- Volume of packed cells (Ehrlich ascites cells [3]): 2.29 ± 1.21 ml/mouse
- Volume of packed cells, % of controls (Ehrlich ascites cells [3]): 84 % of controls

Compound: glucosylceramide [GlcCer]
- Increase in the number of cancer cells (Ehrlich ascites cells [4]): greater than 50%
- Packed, centrifuged ascites cells (mean value per mouse) (Ehrlich ascites cells [3]; EATC mice, eight daily injections from day 1, killed 1 day after the last, GlcCer 100 mg/kg, saline controls 3.07 ml): 4.68 mL
- Increase of packed cells over saline-injected controls (Ehrlich ascites cells [3]; EATC mice, eight daily injections, GlcCer 100 mg/kg, p less than 0.05): 52%
- Volume of packed cells (Ehrlich ascites cells [3]): 4.13 ± 0.63 ml/mouse
- Volume of packed cells, % of controls (Ehrlich ascites cells [3]): 152 % of controls
